Results: patent US20220291217A1, “GASTRIC CANCER MARKER AND EXAMINATION METHOD USING SAME” (JAPANESE FOUNDATION FOR CANCER RESEARCH, priority 2019, published 2022)

Test system: SNU-1 cells
Assay: Staurosporine-induced apoptosis, Annexin V/7AAD flow cytometry
Format: cell-based, human
Details: staurosporine 1.0 μM
Experimental: Staurosporine (STS), a kinase inhibitor, was added to the above cells at 1.0 μM to induce apoptosis (FIG. 4b). Apoptosis was detected with Annexin V, 7AAD kit (BD Bioscience), and analyzed by flow cytometry, BD FACSCalibur (BD Bioscience).

CN[C@@H]1C[C@H]2O[C@@](C)([C@@H]1OC)n1c3ccccc3c3c4c(c5c6ccccc6n2c5c31)C(=O)NC4 [staurosporine, Staurosporine]
cells in which apoptosis is induced (SNU-1 cells that do not express CA1, within 3 hours): 19.3%
cells in which apoptosis was induced (SNU-1 cells with forcedly expressed 3'-FLAG-tagged CA1): 6.1%
